How the values were obtained:
[1] = molecular target: NPC1-like intracellular cholesterol transporter 1 (Rattus norvegicus, UniProt Q6T3U3); assay: Displacement of [3H]ezetimibe-glucuronide from NPC1L1 in Sprague-Dawley rat brush border membrane
Hamster = assay: Inhibition of cholesterol absorption in chow fed hamster at 3 mg/kg, po; assay type: functional; conditions: Cricetinae
[2] = Half life in rat hepatocytes; assay type: ADME, cell-based, Liver, Hepatocyte
[3] = Metabolic stability assessed as half life in rat liver microsomes; assay type: ADME, Microsome

Sequence of NPC1-like intracellular cholesterol transporter 1 (Q6T3U3 21-1331 limits assumed): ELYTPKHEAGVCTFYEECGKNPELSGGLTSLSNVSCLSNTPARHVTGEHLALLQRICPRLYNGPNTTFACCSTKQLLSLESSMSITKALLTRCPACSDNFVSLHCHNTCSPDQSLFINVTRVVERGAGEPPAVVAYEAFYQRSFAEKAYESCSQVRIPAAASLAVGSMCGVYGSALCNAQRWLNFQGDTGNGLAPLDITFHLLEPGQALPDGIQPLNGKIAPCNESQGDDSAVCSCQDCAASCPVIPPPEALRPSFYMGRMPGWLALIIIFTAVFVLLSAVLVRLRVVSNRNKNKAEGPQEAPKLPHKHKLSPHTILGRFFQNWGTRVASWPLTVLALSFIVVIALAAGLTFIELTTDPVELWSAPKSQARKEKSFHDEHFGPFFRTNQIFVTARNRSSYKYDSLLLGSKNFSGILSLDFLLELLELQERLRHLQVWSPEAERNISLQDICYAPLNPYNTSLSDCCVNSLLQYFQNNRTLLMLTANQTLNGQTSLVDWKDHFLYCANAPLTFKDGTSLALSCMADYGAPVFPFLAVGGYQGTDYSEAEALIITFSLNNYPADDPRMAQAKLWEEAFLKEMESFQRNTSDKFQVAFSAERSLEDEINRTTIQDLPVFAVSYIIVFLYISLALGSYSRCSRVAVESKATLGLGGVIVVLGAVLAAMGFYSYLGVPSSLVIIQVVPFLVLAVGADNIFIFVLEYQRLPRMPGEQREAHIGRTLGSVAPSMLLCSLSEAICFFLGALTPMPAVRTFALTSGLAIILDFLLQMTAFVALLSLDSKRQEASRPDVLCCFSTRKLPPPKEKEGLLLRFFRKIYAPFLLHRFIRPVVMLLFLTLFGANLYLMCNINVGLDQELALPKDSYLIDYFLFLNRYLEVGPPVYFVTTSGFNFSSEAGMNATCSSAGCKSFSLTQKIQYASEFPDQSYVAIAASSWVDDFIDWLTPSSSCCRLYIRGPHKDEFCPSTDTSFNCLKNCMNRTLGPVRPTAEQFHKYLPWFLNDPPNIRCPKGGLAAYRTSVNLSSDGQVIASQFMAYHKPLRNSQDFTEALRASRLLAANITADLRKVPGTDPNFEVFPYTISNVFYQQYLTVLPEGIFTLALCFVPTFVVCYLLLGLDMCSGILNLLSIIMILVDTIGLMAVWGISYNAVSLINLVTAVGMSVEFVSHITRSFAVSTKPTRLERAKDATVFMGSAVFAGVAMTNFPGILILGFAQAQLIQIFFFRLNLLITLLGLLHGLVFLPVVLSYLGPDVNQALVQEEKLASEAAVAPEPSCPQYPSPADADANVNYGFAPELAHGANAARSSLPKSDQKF

SMILES	Ki [1] [µM]	also measured
O=C1O[C@H]([C@H](O)CCc2ccccc2)[C@@H](c2cccc(F)c2O)N1c1cccc(F)c1	> 50	inhibition in vivo at 3 mg/kg (Hamster): 0%
O=C1O[C@H]([C@H](O)CCc2ccccc2)[C@@H](c2cc(F)ccc2O)N1c1cccc(F)c1	18	inhibition in vivo at 3 mg/kg (Hamster): 0%
COc1ccc([C@@H]2[C@@H]([C@H](O)CCc3ccccc3)OC(=O)N2c2ccc(F)cc2)c(O)c1	4.8	half-life [2]: 249 min
COc1ccc([C@@H]2[C@@H]([C@H](O)CCc3ccccc3)OC(=O)N2c2ccc(F)cc2)c(OC)c1	> 50	–
O=C1O[C@H]([C@H](O)CCc2ccccc2)[C@@H](c2ccc(O)cc2O)N1c1ccc(F)cc1	9.2	half-life [2]: 136 min
COc1ccc([C@@H]2[C@@H](C(=O)N3CCc4ccccc4C3)OC(=O)N2c2cccc(F)c2)c(O)c1	3.6	–
COc1ccc([C@@H]2[C@@H]([C@H](O)CCc3ccccc3)OC(=O)N2c2cccc(F)c2)c(O)c1	2.3	–
O=C1O[C@H]([C@H](O)CCc2ccccc2)[C@@H](c2ccc(O)cc2)N1c1cccc(F)c1	11	half-life [2]: 71 min
CN(Cc1ccc(F)cc1)C(=O)[C@H]1OC(=O)N(c2ccc(F)cc2)[C@@H]1c1ccc(O)cc1	14	–
COc1cccc(OC[C@@H](O)[C@H]2OC(=O)N(c3ccc(F)cc3)[C@@H]2c2ccc(O)cc2)c1	15	–
O=C(O)[C@H]1O[C@@H](Oc2ccc([C@@H]3[C@@H](CC[C@H](O)c4ccc(F)cc4)C(=O)N3c3ccc(F)cc3)cc2)[C@H](O)[C@@H](O)[C@@H]1O	0.18	half-life [3]: > 60 min
O=C(NC[C@H]1OC(=O)N(c2ccc(F)cc2)[C@@H]1c1ccc(O)cc1)c1ccc(F)cc1	> 50	–
COc1ccc([C@@H]2[C@@H](CCCc3ccccc3)OC(=O)N2c2ccc(OC)cc2)cc1	> 50	–

Second part, led by results:

Ki [1] [µM]	SMILES	also measured
> 50	COc1ccc(O)c([C@@H]2[C@@H]([C@H](O)CCc3ccccc3)OC(=O)N2c2cccc(F)c2)c1	–
> 50	O=C(O)[C@H]1O[C@@H](Oc2ccc([C@@H]3[C@@H]([C@H](O)CCc4ccccc4)OC(=O)N3c3ccc(F)cc3)cc2)[C@H](O)[C@@H](O)[C@@H]1O	–
11	COc1cccc(CN(C)C(=O)[C@H]2OC(=O)N(c3ccc(F)cc3)[C@@H]2c2ccc(O)cc2)c1	–
> 50	O=C1O[C@H]([C@H](O)CCc2ccccc2)[C@@H](c2ccc(O)cc2)N1c1ccccc1F	–
16	Cc1ccc([C@@H]2[C@@H]([C@H](O)CCc3ccccc3)OC(=O)N2c2cccc(F)c2)c(O)c1	–
9.9	O=C1O[C@H](CC[C@H](O)c2ccc(F)cc2)[C@@H](c2ccc(O)cc2)N1c1ccc(F)cc1	–
12	O=C1O[C@H]([C@H](O)CCc2ccccc2)[C@@H](c2ccccc2O)N1c1ccc(F)cc1	inhibition in vivo at 3 mg/kg (Hamster): 0%
30	O=C(NCc1ccc(F)cc1)[C@H]1OC(=O)N(c2ccc(F)cc2)[C@@H]1c1ccc(O)cc1	–
1.4	COc1ccc([C@@H]2[C@@H](C(=O)N(C)Cc3ccc(F)cc3)OC(=O)N2c2cccc(F)c2)c(O)c1	inhibition in vivo at 3 mg/kg (Hamster): 0%
28	O=C1O[C@H]([C@H](O)COc2ccc(F)cc2)[C@@H](c2ccc(O)cc2)N1c1ccc(F)cc1	half-life [2]: 67 min
> 50	COc1ccc(OC[C@@H](O)[C@H]2OC(=O)N(c3ccc(F)cc3)[C@@H]2c2ccc(O)cc2)cc1	–
5.7	COc1cccc([C@@H]2[C@@H]([C@H](O)CCc3ccccc3)OC(=O)N2c2cccc(F)c2)c1O	–
49	O=C1O[C@H]([C@H](O)COc2ccc(Cl)cc2)[C@@H](c2ccc(O)cc2)N1c1ccc(F)cc1	–
19	O=C1O[C@H]([C@H](O)CNc2ccc(F)cc2)[C@@H](c2ccc(O)cc2)N1c1ccc(F)cc1	–
28	COc1ccc([C@@H]2[C@@H]([C@H](O)COc3ccc(F)cc3)OC(=O)N2c2cccc(F)c2)c(O)c1	inhibition in vivo at 3 mg/kg (Hamster): 0%
19	O=C1O[C@H]([C@H](O)CCc2ccccc2)[C@@H](c2ccc(F)cc2O)N1c1cccc(F)c1	inhibition in vivo at 3 mg/kg (Hamster): 0%
8.7	COc1cccc(OC[C@@H](O)[C@H]2OC(=O)N(c3cccc(F)c3)[C@@H]2c2ccc(OC)cc2O)c1	–
33	O=C1O[C@H]([C@H](O)CCc2ccccc2)[C@@H](c2cccc(O)c2)N1c1ccc(F)cc1	–
> 50	O=C1O[C@H]([C@H](O)CCc2ccccc2)[C@@H](c2ccc(O)cc2)N1c1ccc(F)cc1	–
0.2	O=C1[C@H](CC[C@H](O)c2ccc(F)cc2)[C@@H](c2ccc(O)cc2)N1c1ccc(F)cc1 [EZETIMIBE]	half-life [2]: 43 min; half-life [3]: 9.5 min

— ChEMBL document CHEMBL1141587, “Substituted oxazolidinones as novel NPC1L1 ligands for the inhibition of cholesterol absorption” (Bioorg Med Chem Lett, 2008)
